Assay in all cases: In vitro competitive activity-based protein profiling (gel-based, FP-Rh or HT-01 probe)
Common to all, as to type: biochemical

One assay deals with T1, MAGL (Mus musculus, UniProt O35678).
T1 construct: Proteomes (mouse brain membrane fraction or cell lysates); from tissue; host or cells: mouse brain membrane fraction (or cell lysates, not specified)
T1 sequence (O35678 1-303): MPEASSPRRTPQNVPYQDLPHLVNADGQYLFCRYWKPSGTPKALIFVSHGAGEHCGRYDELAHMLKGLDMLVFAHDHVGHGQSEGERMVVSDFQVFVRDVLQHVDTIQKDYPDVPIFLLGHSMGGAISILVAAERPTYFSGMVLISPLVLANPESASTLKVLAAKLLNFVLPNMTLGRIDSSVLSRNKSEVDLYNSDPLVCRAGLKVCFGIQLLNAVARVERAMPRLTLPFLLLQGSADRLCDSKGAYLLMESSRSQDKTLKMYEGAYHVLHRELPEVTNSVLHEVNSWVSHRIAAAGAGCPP
As to conditions: for inhibition at 1 µM: 1 μM inhibitor; for inhibition at 10 µM: 10 μM inhibitor; for IC50: mouse brain membrane fraction or cell lysates, 30 min preincubation at 37° C., read-out: Mouse (IC50 value, nM) MAGL. An outline of the steps:
(§1)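 Steps: inhibitor dilutions + proteome (1.0 mg/mL), 30 min, 37° C; add FP-Rh or HT-01 (50 μM DMSO stock), 30 min, 37° C; quench in SDS buffer; SDS-PAGE; gel imaging; band densitometry.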

A further assay addresses T2, PLA2G7 (Mus musculus, UniProt Q60963).
T2 construct: Proteomes (mouse brain membrane fraction or cell lysates); from tissue; host or cells: mouse brain membrane fraction (or cell lysates, not specified)
T2 sequence (Q60963 22-440): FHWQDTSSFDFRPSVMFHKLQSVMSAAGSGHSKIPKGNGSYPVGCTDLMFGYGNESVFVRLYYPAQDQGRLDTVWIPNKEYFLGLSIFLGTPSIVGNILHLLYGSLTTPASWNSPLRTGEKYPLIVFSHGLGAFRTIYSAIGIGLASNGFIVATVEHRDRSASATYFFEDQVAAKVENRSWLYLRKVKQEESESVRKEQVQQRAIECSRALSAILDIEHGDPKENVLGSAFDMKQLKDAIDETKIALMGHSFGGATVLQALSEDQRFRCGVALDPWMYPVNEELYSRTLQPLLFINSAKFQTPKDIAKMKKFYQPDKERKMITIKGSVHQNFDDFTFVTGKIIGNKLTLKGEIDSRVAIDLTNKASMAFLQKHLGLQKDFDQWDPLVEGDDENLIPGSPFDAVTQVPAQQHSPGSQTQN
As to conditions: for inhibition at 1 µM: 1 μM inhibitor, read-out: % Inhibition at 1 μM, D = PLA2G7; for inhibition at 10 µM: 10 μM inhibitor, read-out: % Inhibition at 10 μM, D = PLA2G7; for IC50: mouse brain membrane fraction or cell lysates, 30 min preincubation at 37° C. In a few lines: as §1

A further assay addresses T3, ABHD6 (Mus musculus, UniProt Q8R2Y0).
T3 construct: Proteomes (mouse brain membrane fraction or cell lysates); from tissue; host or cells: mouse brain membrane fraction (or cell lysates, not specified)
T3 sequence (Q8R2Y0 1-336): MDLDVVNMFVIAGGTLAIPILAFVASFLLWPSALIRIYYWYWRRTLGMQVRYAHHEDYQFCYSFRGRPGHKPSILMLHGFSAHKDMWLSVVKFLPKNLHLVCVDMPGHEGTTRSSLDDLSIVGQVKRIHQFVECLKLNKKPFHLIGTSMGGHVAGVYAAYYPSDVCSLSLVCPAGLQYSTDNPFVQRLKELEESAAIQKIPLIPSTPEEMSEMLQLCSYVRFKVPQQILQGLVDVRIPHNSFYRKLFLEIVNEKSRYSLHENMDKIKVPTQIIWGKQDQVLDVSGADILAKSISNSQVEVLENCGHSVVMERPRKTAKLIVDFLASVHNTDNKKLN
As to conditions: for inhibition at 1 µM: 1 μM inhibitor, read-out: % Inhibition at 1 μM, C = ABHD6; for inhibition at 10 µM: 10 μM inhibitor, read-out: % Inhibition at 10 μM, C = ABHD6; for IC50: mouse brain membrane fraction or cell lysates, 30 min preincubation at 37° C., read-out: Mouse (IC50 value, nM) ABHD6. An outline of the steps:
as §1

Another assay concerns the target T4, FAAH (Mus musculus, UniProt O08914).
T4 construct: Proteomes (mouse brain membrane fraction or cell lysates); from tissue; host or cells: mouse brain membrane fraction (or cell lysates, not specified)
T4 sequence (O08914 1-579): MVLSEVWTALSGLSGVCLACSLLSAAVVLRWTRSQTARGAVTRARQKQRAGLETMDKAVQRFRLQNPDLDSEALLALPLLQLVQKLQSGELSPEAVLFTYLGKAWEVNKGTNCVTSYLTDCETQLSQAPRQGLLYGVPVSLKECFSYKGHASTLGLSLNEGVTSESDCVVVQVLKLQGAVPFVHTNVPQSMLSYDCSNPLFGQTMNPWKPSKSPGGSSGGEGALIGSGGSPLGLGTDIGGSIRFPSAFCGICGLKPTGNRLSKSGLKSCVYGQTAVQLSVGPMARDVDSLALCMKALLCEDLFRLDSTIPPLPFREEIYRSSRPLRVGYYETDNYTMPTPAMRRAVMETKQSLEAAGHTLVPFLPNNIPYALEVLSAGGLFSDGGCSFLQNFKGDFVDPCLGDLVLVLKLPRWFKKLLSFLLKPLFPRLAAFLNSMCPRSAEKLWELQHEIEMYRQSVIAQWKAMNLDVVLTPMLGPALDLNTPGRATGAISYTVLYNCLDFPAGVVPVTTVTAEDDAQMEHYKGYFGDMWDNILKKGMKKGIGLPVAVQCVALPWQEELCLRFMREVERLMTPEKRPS
As to conditions: for inhibition at 1 µM: 1 μM inhibitor, read-out: % Inhibition at 1 μM, B = FAAH; for inhibition at 10 µM: 10 μM inhibitor, read-out: % Inhibition at 10 μM, B = FAAH; for IC50: mouse brain membrane fraction or cell lysates, 30 min preincubation at 37° C., read-out: Mouse (IC50 value, nM) FAAH. In a few lines:
as §1

Consider eleven compounds from patent US10093630B2, “Pyrazole compounds and methods of making and using same” (ABIDE THERAPEUTICS, INC., priority 2014, dated 2018).

Read-outs that look alike come from different tables or passages of the source.

Regarding `COC(=O)c1cnn(C(=O)N2CCN(Cc3ccc4ccccc4c3)CC2)c1` [Example 15, Methyl 1-(4-(naphthalen-2-ylmethyl)piperazine-1-carbonyl)-1H-pyrazole-4-carboxylate], the inhibition at 1 µM on MAGL, on PLA2G7, at ABHD6 and at FAAH was greater than 75% in each case. The inhibition at 10 µM on MAGL, at PLA2G7, on ABHD6 and on FAAH was greater than 75% each time.

Regarding `N#Cc1cnn(C(=O)N2CCN(c3ccccc3)CC2)c1` [Example 206, 1-(4-Phenylpiperazine-1-carbonyl)-1H-pyrazole-4-carbonitrile], the inhibition at 1 µM on MAGL, on PLA2G7, on ABHD6 and on FAAH was greater than 75% each time. Moreover, the inhibition at 10 µM on MAGL, on PLA2G7, at ABHD6 and at FAAH was greater than 75% each time.

In the case of `CCN(Cc1cccc(N2CCOCC2)c1)C(=O)n1cc(C(F)(F)F)cn1` [Example 261, N-Ethyl-N-(3-morpholinobenzyl)-4-(trifluoromethyl)-1H-pyrazole-1-carboxamide], the inhibition at 1 µM at MAGL (gel-based competitive ABPP) was 25 to 75%; on PLA2G7 (gel-based competitive ABPP), less than 25%; at ABHD6 (gel-based competitive ABPP), 25 to 75%; at FAAH (gel-based competitive ABPP), greater than 75%. The IC50 is 100 to 1000 nM at MAGL, greater than 1000 nM on PLA2G7, greater than 1000 nM at ABHD6 and less than 100 nM on FAAH.

Take `O=C(c1cnn(C(=O)N2CCN(Cc3ccc4c(c3)OCO4)CC2)c1)N1CCC1` [Example 86, Azetidin-1-yl(1-(4-(benzo[d][1,3]dioxol-5-ylmethyl)piperazine-1-carbonyl)-1H-pyrazol-4-yl)methanone]: the inhibition at 1 µM at MAGL was less than 25%; on PLA2G7, less than 25%; on ABHD6, 25 to 75%; on FAAH, greater than 75%. In addition, the inhibition at 10 µM at MAGL, at PLA2G7, on ABHD6 and at FAAH was greater than 75% in each case.

For the compound `O=C(N1CCCCC1)n1cccn1` [Example 1, Piperidin-1-yl(1H-pyrazol-1-yl)methanone], the inhibition at 1 µM at MAGL, at PLA2G7, at ABHD6 and on FAAH was less than 25% in each case. Besides, the inhibition at 10 µM is 25 to 75% on MAGL, 25 to 75% on PLA2G7, greater than 75% at ABHD6 and greater than 75% on FAAH.

In the case of `CCN(Cc1cccc(OC)c1)C(=O)n1cc(C(F)(F)F)cn1` [Example 250, N-Ethyl-N-(3-methoxybenzyl)-4-(trifluoromethyl)-1H-pyrazole-1-carboxamide], the inhibition at 1 µM on MAGL (gel-based competitive ABPP) was greater than 75%; at PLA2G7 (gel-based competitive ABPP), less than 25%; at ABHD6 (gel-based competitive ABPP), 25 to 75%; at FAAH (gel-based competitive ABPP), greater than 75%. Besides, the inhibition at 10 µM on MAGL (gel-based competitive ABPP), at PLA2G7 (gel-based competitive ABPP), at ABHD6 (gel-based competitive ABPP) and at FAAH (gel-based competitive ABPP) was greater than 75% throughout. The values for the 50% inhibitory concentration (IC50) at MAGL, on ABHD6 and at FAAH were greater than 1000 nM, greater than 1000 nM and less than 100 nM, respectively.

Take `O=C(c1cnn(C(=O)N2CCN(Cc3ccncc3)CC2)c1)N1CCCCC1` [Example 70, Piperidin-1-yl(1-(4-(pyridin-4-ylmethyl)piperazine-1-carbonyl)-1H-pyrazol-4-yl)methanone]: the inhibition at 1 µM at MAGL was less than 25%; on PLA2G7, greater than 75%; on ABHD6 it was 25 to 75%; on FAAH it was less than 25%. The inhibition at 10 µM on MAGL was less than 25%; on PLA2G7 it was greater than 75%; at ABHD6 it was greater than 75%; at FAAH, 25 to 75%.

Take `CCN(Cc1ccc(N2CCOCC2)cc1)C(=O)n1cc(C#N)cn1` [Example 263, 4-Cyano-N-ethyl-N-(4-morpholinobenzyl)-1H-pyrazole-1-carboxamide]: the inhibition at 1 µM was greater than 75% on MAGL (gel-based competitive ABPP), less than 25% on PLA2G7 (gel-based competitive ABPP), 25 to 75% at ABHD6 (gel-based competitive ABPP) and greater than 75% at FAAH (gel-based competitive ABPP). In addition, the IC50 at MAGL is 100 to 1000 nM; at PLA2G7, greater than 1000 nM; at ABHD6, greater than 1000 nM; at FAAH, less than 100 nM.

For `CS(=O)(=O)N1CCCN(C(=O)n2cc(Cl)cn2)CC1` [Example 189, (4-Chloro-1H-pyrazol-1-yl)(4-(methylsulfonyl)-1,4-diazepan-1-yl)methanone], the inhibition at 1 µM on MAGL was less than 25%; on PLA2G7, less than 25%; at ABHD6 it was greater than 75%; at FAAH it was greater than 75%. Besides, the inhibition at 10 µM at MAGL is 25 to 75%; on PLA2G7, less than 25%; at ABHD6 it was greater than 75%; at FAAH, greater than 75%.

Turning to `CCN(Cc1cccc(N2CCOCC2)c1)C(=O)n1cc(C#N)cn1` [Example 242, 4-Cyano-N-ethyl-N-(3-morpholinobenzyl)-1H-pyrazole-1-carboxamide], the inhibition at 1 µM at MAGL was greater than 75%; at PLA2G7, less than 25%; on ABHD6 it was 25 to 75%; at FAAH it was greater than 75%.

On to `O=C(N1CCCC1)n1cc(-c2ccccc2)cn1` [Example 103, (4-Phenyl-1H-pyrazol-1-yl)(pyrrolidin-1-yl)methanone], for which the inhibition at 10 µM is less than 25% on MAGL, greater than 75% on PLA2G7, less than 25% at ABHD6 and greater than 75% on FAAH.

A word on the inhibition: it is the change of the read-out against control, counted positive when it falls. Broadly, the IC50 is the concentration at which inhibition is half-maximal.
